Structures can show the parent of a compound that is named as a salt.
Key:
Assay type in all cases: cell-based
Debaryomyces hansenii = assay: Screening against yeasts; set-up: key: 3 = complete inhibition of growth, 2 = growth partially controlled; settings: test compound concentration 500 μM
Procedure: (§1) The stock solutions with the test compounds were pipetted into multiwell plates and mixed with warm tryptose broth agar (2.6%) in order to reach a test compound concentration of 500 μMol. The medium was allowed to cool and subsequently inoculated with the bacteria. Wells were placed in an incubator at 27° C. and a relative humidity of 70%. After sufficient growth of the untreated cultures, the test was evaluated.
(§2) 3: complete inhibition of bacterial growth
(§3) 2: bacterial growth partially controlled
(§4) A number of compounds of formula (I) were also tested in a screening against certain The test conditions are the same as described in biological example C.1. The concentration of the test compound was also 500 μmol, and the scoring system used was also the same.
Debaryomyces hansenii (19)

Sporobolomyces roseus = assay: Screening against yeasts; set-up: key: 3 = complete inhibition of growth, 2 = growth partially controlled; settings: test compound concentration 500 μmol
Procedure: as §1, §2, §3, §4
Sporobolomyces roseus (21)

Rhodotorula rubra = assay: Screening against yeasts; set-up: key: 3 = complete inhibition of growth, 2 = growth partially controlled; settings: test compound concentration 500 μmol
Procedure: as §1, §2, §3, §4

Pseudomonas aeruginosa = assay: Primary bacteria screening; set-up: key: score: 3 = complete inhibition of growth, 2 = growth partially controlled; settings: test compound concentration 500 μMol in tryptose broth agar, 27° C.
Procedure: as §1, §2, §3

Escherichia coli = assay: Primary bacteria screening; set-up: key: score: 3 = complete inhibition of growth, 2 = growth partially controlled; settings: test compound concentration 500 μMol in tryptose broth agar, 27° C.
Procedure: as §1, §2, §3

SMILES | Test yeast (19) Debaryomyces hansenii (score) (Debaryomyces hansenii) | Test yeast (21) Sporobolomyces roseus (score) (Sporobolomyces roseus) | Test yeast (20) Rhodotorula rubra (score) (Rhodotorula rubra) | P. aeruginosa (growth inhibition score) (Pseudomonas aeruginosa) | E. coli (growth inhibition score) (Escherichia coli)
CNCCCN(C)CCCN(C)C(c1ccccc1)c1ccc(-c2ccccc2)cc1 (racemic) [Co. No. 52, (±)-N-[[(1,1′-biphenyl)4-yl]phenylmethyl]-N,N′-dimethyl-N′-[3-(methylamino)propyl]-1,3-propanediamine trihydrochloride] | 3 | 3 | 3 | 1 | 3
CN(C)CCNCCC(c1ccccc1)c1ccc(-c2ccccc2)cc1 (stereo not shown) [compound 39] | 3 | 3 | 1 | 1 | 3
c1ccc(-c2ccc(C(c3ccccc3)C3CCN(C4CCNCC4)CC3)cc2)cc1 (single isomer, unassigned) [compound 23] | 3 | 3 | 3 | 3 | 1
NCCC1CCN(CC=C(c2ccccc2)c2ccc(-c3ccccc3)cc2)CC1.O=C(O)C(=O)O.O=C(O)C(=O)O [compound 25] | 3 | 3 | 1 | 1 | 3
Cl.Cl.Fc1ccc(-c2ccc(C(c3ccccc3)C3CCN(C4CCNCC4)CC3)cc2)cc1.O (racemic) [Co. No. 7, (±)-4-[[4′-fluoro(1,1′-biphenyl)-4-yl]phenylmethyl](1,4′-bipiperidine)dihydro-chloride.monohydrate] | 3 | 3 | 2 | 3 | 3
Cc1ccc(C(c2ccc(-c3ccc(F)cc3)cc2)C2CCN(C3CCNCC3)CC2)cc1.Cl.Cl (stereo not shown) [compound 9] | 3 | 3 | 3 | 2 | 3
Br.Br.c1ccc(-c2ccc(C(CCNC3CCNCC3)c3ccccc3)cc2)cc1 (stereo not shown) [compound 50] | 3 | 3 | 3 | 1 | 3
Cl.Cl.Fc1ccc(-c2ccc(C(c3ccc(F)cc3)C3CCN(C4CCNCC4)CC3)cc2)cc1 (stereo not shown) [compound 6] | 3 | 3 | 3 | 3 | 3
Cl.Fc1ccc(C(c2ccc(-c3ccccc3)cc2)C2CCN(C3CCNCC3)CC2)cc1 (stereo not shown) [compound 11] | 3 | 3 | 1 | 3 | 3
CN(C)CC1CCN(CCC(c2ccccc2)c2ccc(-c3ccccc3)cc2)CC1 (stereo not shown) [compound 33] | 3 | 3 | 3 | 1 | 1
NCCCN1CCC(N2CCC(C(c3ccccc3)c3ccc(-c4ccccc4)cc3)CC2)CC1 (stereo not shown) [compound 16] | 3 | 3 | 3 | 3 | 3
c1ccc(-c2ccc(C(NC3CCN(C4CCNCC4)CC3)c3ccccc3)cc2)cc1 (stereo not shown) [compound 47] | 3 | 3 | 3 | 1 | 3
CN(C)CCCN1CCC(C(c2ccccc2)c2ccc(-c3ccccc3)cc2)CC1.Cl.Cl (stereo not shown) [compound 43] | 3 | 3 | 2 | 2 | 1
Cl.Cl.NCCC1CCN(CCC(c2ccccc2)c2ccc(-c3ccccc3)cc2)CC1 (stereo not shown) [compound 29] | 3 | 3 | 3 | 1 | 3
NC1CCN(CC=C(c2ccccc2)c2ccc(-c3ccccc3)cc2)CC1.O=C(O)C(=O)O.O=C(O)C(=O)O [compound 27] | 3 | 3 | 1 | 1 | 3
Cl.Cl.Oc1ccc(C(c2ccc(-c3ccccc3)cc2)C2CCN(C3CCNCC3)CC2)cc1 (stereo not shown) [compound 13] | 3 | 3 | 1 | 3 | 3
Br.Br.CN(CCC(c1ccccc1)c1ccc(-c2ccccc2)cc1)C1CCNCC1 (stereo not shown) [compound 51] | 3 | 3 | 3 | 1 | 3
Cl.Cl.NCC1CCN(CCC(c2ccccc2)c2ccc(-c3ccccc3)cc2)CC1 (stereo not shown) [compound 30] | 3 | 3 | 1 | 1 | 3
NCC1CCN(CC=C(c2ccccc2)c2ccc(-c3ccccc3)cc2)CC1.O=C(O)C(=O)O.O=C(O)C(=O)O [compound 26] | 3 | 3 | 2 | 1 | 3
Cl.Cl.c1ccc(-c2ccc(C(c3ccccc3)C3CCN(C4CCNCC4)CC3)cc2)cc1 (single isomer, unassigned) [compound 22] | 3 | 3 | 1 | 1 | 3

Source: patent publication US6440440B1, “Biocidal benzylbiphenyl derivatives” (priority 1998, dated 2002)
